Measured values published in patent publication US11919901B2 (Syndax Pharmaceuticals, Inc., priority 2021, dated 2024).
pIC50: −log10 of the molar value.

Test system: MV4-11 cells
Experiment: Cell proliferation assay MV4;11 (CellTiter-Glo, 72 hours)
Type: cell-based
Settings: Homo sapiens; MV4;11 leukemia cell line, 72 hours; read-out: MV4; 11 IC50
Summary of the method: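 MV4-11 cells (MLL1-AF4 fusion) exposed 72 h at 37 °C to 8 compound concentrations, final 0.632–2000 nM. Viability by CellTiter-Glo luminescence as % of vehicle RLU; % max inhibition = 100 − viability at top concentration.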

| Compound | pIC50 |
| --- | --- |
| CCNS(=O)(=O)N[C@@H]1CC[C@@H](CN2CCC3(CC2)CN(c2ncncc2Oc2ccc(F)cc2C(=O)N(C(C)C)C2CC(F)(F)C2)C3)OC1 [Example 155, N-(3,3-Difluorocyclobutyl)-2-((4-(7-(((2S,5R)-5-((N-ethylsulfamoyl)amino)tetrahydro-2H-pyran-2-yl)methyl)-2,7-diazaspiro[3.5]nonan-2-yl)pyrimidin-5-yl)oxy)-5-fluoro-N-isopropylbenzamide] | > 7.00 |
| C[C@@H]1COC[C@@H](C)N1C(=O)c1cc(F)ccc1Oc1cncnc1N1CC2(CCN(C[C@@H]3CC[C@@H](NS(=O)(=O)NCC(F)(F)F)CO3)CC2)C1 [Example 157, {[(3R,6S)-6-{[2-(5-{2-[(3R,5R)-3,5-Dimethylmorpholine-4-carbonyl]-4-fluorophenoxy}pyrimidin-4-yl)-2,7-diazaspiro[3.5]nonan-7-yl]methyl}oxan-3-yl]sulfamoyl}(2,2,2-trifluoroethyl)amine] | > 7.00 |
| C[C@@H]1COC[C@@H](C)N1C(=O)c1cc(F)ccc1Oc1cncnc1N1CC2(CCN(C[C@@H]3CC[C@@H](NS(=O)(=O)NCC4CC4)CO3)CC2)C1 [Example 158, (Cyclopropylmethyl)({[(3R,6S)-6-{[2-(5-{2-[(3R,5R)-3,5-dimethylmorpholine-4-carbonyl]-4-fluorophenoxy}pyrimidin-4-yl)-2,7-diazaspiro[3.5]nonan-7-yl]methyl}oxan-3-yl]sulfamoyl})amine] | > 7.00 |
| C[C@@H]1COC[C@@H](C)N1C(=O)c1cc(F)ccc1Oc1cncnc1N1CC2(CCN(C[C@@H]3CC[C@@H](NS(=O)(=O)NC4CC4)CO3)CC2)C1 [Example 159, N-[(3R,6S)-6-{[2-(5-{2-[(3R,5R)-3,5-Dimethylmorpholine-4-carbonyl]-4-fluorophenoxy}pyrimidin-4-yl)-2,7-diazaspiro[3.5]nonan-7-yl]methyl}oxan-3-yl](cyclopropylamino)sulfonamide] | > 7.00 |
| C[C@@H]1COC[C@H](C)N1C(=O)c1cc(F)ccc1Oc1cncnc1N1CC2(CCN(C[C@@H]3CC[C@@H](NS(=O)(=O)N(C)C)CO3)CC2)C1 [Example 160, {[(3R,6S)-6-{[2-(5-{2-[(3R,5S)-3,5-Dimethylmorpholine-4-carbonyl]-4-fluorophenoxy}pyrimidin-4-yl)-2,7-diazaspiro[3.5]nonan-7-yl]methyl}oxan-3-yl]sulfamoyl}dimethylamine] | > 7.00 |
| C[C@@H]1COC[C@H](C)N1C(=O)c1cc(F)ccc1Oc1cncnc1N1CC2(CCN(C[C@@H]3CC[C@@H](NS(=O)(=O)N4CCC4)CO3)CC2)C1 [Example 161, N-((3R,6S)-6-((2-(5-(2-((3R,5S)-3,5-Dimethylmorpholine-4-carbonyl)-4-fluorophenoxy)pyrimidin-4-yl)-2,7-diazaspiro[3.5]nonan-7-yl)methyl)tetrahydro-2H-pyran-3-yl)azetidine-1-sulfonamide] | > 7.00 |
| C[C@@H]1COC[C@H](C)N1C(=O)c1cc(F)ccc1Oc1cncnc1N1CC2(CCN(C[C@@H]3CC[C@@H](NS(=O)(=O)NCC(F)(F)F)CO3)CC2)C1 [Example 162, {[(3R,6S)-6-{[2-(5-{2-[(3R,5S)-3,5-Dimethylmorpholine-4-carbonyl]-4-fluorophenoxy}pyrimidin-4-yl)-2,7-diazaspiro[3.5]nonan-7-yl]methyl}oxan-3-yl]sulfamoyl}(2,2,2-trifluoroethyl)amine] | > 7.00 |
| C[C@@H]1COC[C@H](C)N1C(=O)c1cc(F)ccc1Oc1cncnc1N1CC2(CCN(C[C@@H]3CC[C@@H](NS(=O)(=O)NC4CC4)CO3)CC2)C1 [Example 163, N-[(3R,6S)-6-{[2-(5-{2-[(3R,5S)-3,5-Dimethylmorpholine-4-carbonyl]-4-fluorophenoxy}pyrimidin-4-yl)-2,7-diazaspiro[3.5]nonan-7-yl]methyl}oxan-3-yl](cyclopropylamino)sulfonamide] | > 7.00 |
| CC(C)N(C(=O)c1cc(F)ccc1Oc1cncnc1N1CC2(CCN(C[C@@H]3CC[C@@H](NS(=O)(=O)C4CC4)CO3)CC2)C1)[C@@H]1CCOC1 [Example 164, 2-((4-(7-(((2S,5R)-5-(Cyclopropanesulfonamido)tetrahydro-2H-pyran-2-yl)methyl)-2,7-diazaspiro[3.5]nonan-2-yl)pyrimidin-5-yl)oxy)-5-fluoro-N-isopropyl-N-((R)-tetrahydrofuran-3-yl)benzamide] | > 7.00 |
| CCN(CC)S(=O)(=O)N[C@@H]1CC[C@@H](CN2CCC3(CC2)CN(c2ncncc2Oc2ccc(F)cc2C(=O)N(C(C)C)[C@@H]2CCOC2)C3)OC1 [Example 165, 2-((4-(7-(((2S,5R)-5-((N,N-Diethylsulfamoyl)amino)tetrahydro-2H-pyran-2-yl)methyl)-2,7-diazaspiro[3.5]nonan-2-yl)pyrimidin-5-yl)oxy)-5-fluoro-N-isopropyl-N-((R)-tetrahydrofuran-3-yl)benzamide] | > 7.00 |
| CC(C)N(C(=O)c1cc(F)ccc1Oc1cncnc1N1CC2(CCN(C[C@@H]3CC[C@@H](NS(C)(=O)=O)CO3)CC2)C1)[C@@H]1CCOC1 [Example 166, 5-Fluoro-N-isopropyl-2-((4-(7-(((2S,5R)-5-(methylsulfonamido)tetrahydro-2H-pyran-2-yl)methyl)-2,7-diazaspiro[3.5]nonan-2-yl)pyrimidin-5-yl)oxy)-N-((R)-tetrahydrofuran-3-yl)benzamide] | > 7.00 |
| CC(C)N(C(=O)c1cc(F)ccc1Oc1cncnc1N1CC2(CCN(C[C@@H]3CC[C@@H](NS(=O)(=O)N(C)C)CO3)CC2)C1)[C@@H]1CCOC1 [Example 167, 2-((4-(7-(((2S,5R)-5-((N,N-Dimethylsulfamoyl)amino)tetrahydro-2H-pyran-2-yl)methyl)-2,7-diazaspiro[3.5]nonan-2-yl)pyrimidin-5-yl)oxy)-5-fluoro-N-isopropyl-N-((R)-tetrahydrofuran-3-yl)benzamide] | > 7.00 |
| CC(C)N(C(=O)c1cc(F)ccc1Oc1cncnc1N1CC2(CCN(C[C@@H]3CC[C@@H](NS(=O)(=O)N4CCC4)CO3)CC2)C1)[C@@H]1CCOC1 [Example 168, 2-((4-(7-(((2S,5R)-5-(Azetidine-1-sulfonamido)tetrahydro-2H-pyran-2-yl)methyl)-2,7-diazaspiro[3.5]nonan-2-yl)pyrimidin-5-yl)oxy)-5-fluoro-N-isopropyl-N-((R)-tetrahydrofuran-3-yl)benzamide] | > 7.00 |
| CC(C)N(C(=O)c1cc(F)ccc1Oc1cncnc1N1CC2(CCN(C[C@@H]3CC[C@@H](NS(=O)(=O)N4CCCC4)CO3)CC2)C1)[C@@H]1CCOC1 [Example 169, 5-Fluoro-N-isopropyl-2-((4-(7-(((2S,5R)-5-(pyrrolidine-1-sulfonamido)tetrahydro-2H-pyran-2-yl)methyl)-2,7-diazaspiro[3.5]nonan-2-yl)pyrimidin-5-yl)oxy)-N-((R)-tetrahydrofuran-3-yl)benzamide] | > 7.00 |
| CCN(C)S(=O)(=O)N[C@@H]1CC[C@@H](CN2CCC3(CC2)CN(c2ncncc2Oc2ccc(F)cc2C(=O)N(C(C)C)[C@@H]2CCOC2)C3)OC1 [Example 170, 2-((4-(7-(((2S,5R)-5-((N-Ethyl-N-methylsulfamoyl)amino)tetrahydro-2H-pyran-2-yl)methyl)-2,7-diazaspiro[3.5]nonan-2-yl)pyrimidin-5-yl)oxy)-5-fluoro-N-isopropyl-N-((R)-tetrahydrofuran-3-yl)benzamide] | > 7.00 |
| CC(C)N(C(=O)c1cc(F)ccc1Oc1cncnc1N1CC2(CCN(C[C@@H]3CC[C@@H](NS(=O)(=O)NCC(F)(F)F)CO3)CC2)C1)[C@@H]1CCOC1 [Example 171, 5-Fluoro-N-isopropyl-N-((R)-tetrahydrofuran-3-yl)-2-((4-(7-(((2S,5R)-5-((N-(2,2,2-trifluoroethyl)sulfamoyl)amino)tetrahydro-2H-pyran-2-yl)methyl)-2,7-diazaspiro[3.5]nonan-2-yl)pyrimidin-5-yl)oxy)benzamide] | > 7.00 |
| CCNS(=O)(=O)N[C@@H]1CC[C@@H](CN2CCC3(CC2)CN(c2ncncc2Oc2ccc(F)cc2C(=O)N(C(C)C)[C@@H]2CCOC2)C3)OC1 [Example 172, 2-((4-(7-(((2S,5R)-5-((N-ethylsulfamoyl)amino)tetrahydro-2H-pyran-2-yl)methyl)-2,7-diazaspiro[3.5]nonan-2-yl)pyrimidin-5-yl)oxy)-5-fluoro-N-isopropyl-N-((R)-tetrahydrofuran-3-yl)benzamide] | > 7.00 |
| CC(C)N(C(=O)c1cc(F)ccc1Oc1cncnc1N1CC2(CCN(C[C@@H]3CC[C@@H](NS(C)(=O)=O)CO3)CC2)C1)[C@H]1CCOC1 [Example 173, 5-Fluoro-N-isopropyl-2-((4-(7-(((2S,5R)-5-(methylsulfonamido)tetrahydro-2H-pyran-2-yl)methyl)-2,7-diazaspiro[3.5]nonan-2-yl)pyrimidin-5-yl)oxy)-N-((S)-tetrahydrofuran-3-yl)benzamide] | > 7.00 |
| CC(C)N(C(=O)c1cc(F)ccc1Oc1cncnc1N1CC2(CCN(C[C@@H]3CC[C@@H](NS(=O)(=O)C(C)C)CO3)CC2)C1)[C@H]1CCOC1 [Example 174, 5-Fluoro-N-isopropyl-2-((4-(7-(((2S,5R)-5-((1-methylethyl)sulfonamido)tetrahydro-2H-pyran-2-yl)methyl)-2,7-diazaspiro[3.5]nonan-2-yl)pyrimidin-5-yl)oxy)-N-((S)-tetrahydrofuran-3-yl)benzamide] | > 7.00 |
| CCN(CC)S(=O)(=O)N[C@@H]1CC[C@@H](CN2CCC3(CC2)CN(c2ncncc2Oc2ccc(F)cc2C(=O)N(C(C)C)[C@H]2CCOC2)C3)OC1 [Example 175, 2-((4-(7-(((2S,5R)-5-((N,N-Diethylsulfamoyl)amino)tetrahydro-2H-pyran-2-yl)methyl)-2,7-diazaspiro[3.5]nonan-2-yl)pyrimidin-5-yl)oxy)-5-fluoro-N-isopropyl-N-((S)-tetrahydrofuran-3-yl)benzamide] | > 7.00 |
| CC(C)N(C(=O)c1cc(F)ccc1Oc1cncnc1N1CC2(CCN(C[C@@H]3CC[C@@H](NS(=O)(=O)C4CC4)CO3)CC2)C1)[C@H]1CCOC1 [Example 176, 2-((4-(7-(((2S,5R)-5-(Cyclopropanesulfonamido)tetrahydro-2H-pyran-2-yl)methyl)-2,7-diazaspiro[3.5]nonan-2-yl)pyrimidin-5-yl)oxy)-5-fluoro-N-isopropyl-N-((S)-tetrahydrofuran-3-yl)benzamide] | > 7.00 |
